Test results as given in patent publication US20260097002A1, “METHOD OF TREATMENT AND DEVICE FOR THE IMPROVED BIOAVAILABILITY OF LEUKOTRIENE RECEPTOR ANTAGONISTS” (INTELGENX CORP., priority 2022, published 2026).

Legend:
[1] = Clinical study: plasma pharmacokinetics, film vs Singulair tablet; type: in vivo; conditions: human, oral, 10 mg, clinical trials of the film, read-out: Tmax of plasma levels
Method: We have performed a clinical study of our product to determine the pharmacokinetics of the API loaded into this pharmaceutical platform. […] Singulair® is the marketed formulation of MTL, commonly prescribed for asthma sufferers. It consists of a 10 mg loaded API tablet. The Cmax and Tmax values are listed below, see Table 2. […] These higher values for our films means that we could load less API into the film product and achieve the same Cmax/AUC as the Singulair® reference product. The major difference between the disclosed Intelgenx prototype and Singulair® is the physical state of the MTL once it reaches the stomach. In the Singulair® product, the MTL reaches the stomach in a compressed solid state and thus must solubilize in the stomach under unfavorable conditions. […] The MTL is then transferred to the small intestine via the pylori. Since the MTL is already present as a suspended precipitate, the MTL may more easily reach the small intestine through the leaking pylori. It is well known that the pylori is not leak proof and allows some liquid to flow through even in its closed position. […] In particular, the chewable dosage form is about 1.17 times more bioavailable than the tablet when administered in a fasting subject (compared using available bioavailability date shown in Table 2). […]

[2] = rats dosed with radiolabeled MTL; cited from earlier work
[3] = MTL in tablet form; cited from earlier work
plasma proteins = conditions: cited from earlier work

CC(C)(O)c1ccccc1CC[C@@H](SCC1(CC(=O)O)CC1)c1cccc(/C=C/c2ccc3ccc(Cl)cc3n2)c1 [MTL, Montelukast]
Tmax [1]: 2 to 4 h | Distribution across the blood-brain barrier [2]: minimal distribution | Time to maximum concentrations in blood stream [3]: 2 to 4 h | Bound to plasma proteins (plasma proteins): more than 99%
